For four compounds, fraction unbound and EC50 results are on record in patent EP4786454A1, “HETEROARYL DERIVATIVE AND USE THEREOF” (priority 2023, dated 2025).

The nature of data set [1]: Plasma protein binding rate, equilibrium dialysis (rat plasma). Format: in vitro ADME, Sprague-Dawley rats. To be noted: r (Sprague-Dawley rat plasma), dialysis 4 hours at 37 °C, read-out: Unbound PPB%. The protocol: (§1) The protein binding rates of the compounds in the plasma of CD-1 mice, Sprague-Dawley rats, beagle dogs, cynomolgus monkeys, and human were determined using equilibrium dialysis method.
(§2) Commercially available plasma, dual-layer dialysis membrane, and equilibrium dialysis device.
(§3) The dual-layer dialysis membrane was soaked in ultrapure water for about 1 hour, removed and then divided into two parts. It was then soaked in an ethanol:water (20:80, v:v) solution for 20 minutes or placed at 2 to 8 °C, and it was valid for 1 month. Before starting the assay, the dialysis membrane was rinsed twice with ultrapure water and then soaked in ultrapure water for another 20 minutes for later use.
(§4) On the day of assay, the frozen plasma of CD-1 mice, Sprague-Dawley rats, beagle dogs, cynomolgus monkeys, and human was thawed in running cold tap water. After the plasma was completely thawed, the plasma was centrifuged at 3220×g for 5 minutes, and the suspended substances and precipitates in it were removed. The pH of the plasma was determined. The plasma with a pH in the range of 7.4 ± 0.1 was directly used, or the plasma with a pH in the range of 7.4 ± 0.1 after an adjustment with 1% phosphoric acid or 1M sodium hydroxide was used.
(§5) Preparation process of plasma samples: 597 µL of blank plasma from each of the above five species was taken, respectively. 3 µL of a compound or warfarin working solution was added, and the mixture was mixed thoroughly to give a plasma sample with a compound concentration of 2 µM and a warfarin concentration of 2 µM (n=1). The concentration of the organic phase DMSO was 0.5%. The sample was thoroughly mixed before proceeding to the next step.
(§6) Preparation process of T0 samples: 50 µL of a plasma sample containing the compound and warfarin was transferred to a sample receiving plate (n=3), and 50 µL of blank PBS was immediately added. Then, 500 µL of stop solution was added to the T0 sample of the compound and warfarin, and the mixture was stored at 2 to 8 °C, waiting to be processed later together with other dialysis-processed samples.
(§7) Dialysis process of plasma samples: 100 µL of a compound (2 µM) and warfarin (2 µM) plasma sample was added to the donor of each dialysis well (n=3), and 100 µL of blank PBS was added to the corresponding receiver of the dialysis well. The dialysis plate was placed in a 5% CO2 incubator, and incubated at 37 °C with shaking at approximately 100 rpm for 4 hours.
(§8) After the dialysis was completed, 50 µL of dialysis-processed PBS sample and dialysis-processed plasma sample (n=3) were transferred to a new 96-well plate (sample receiving plate). The corresponding volume of the corresponding blank plasma or PBS was added to the sample to make the final volume of each sample well 100 µL, with a plasma to PBS volume ratio of 1:1. All the samples were analyzed by LC-MS/MS after protein precipitation.
(§9) The formulas for calculating the unbound fraction (%Unbound), bound fraction (%Bound) and recovery fraction (%Recovery) of a compound are as follows: %Unbound = 100 ×F / T %Bound = 100 - %Unbound %Recovery = 100 ×(F + T)/ T0 wherein F is the concentration of the compound at the receiver of dialysis; T is the concentration of the compound at the supply end of dialysis; and T0 is the concentration of the compound in the plasma at time zero.

Data set [2] is described as follows: Plasma protein binding rate, equilibrium dialysis (dog plasma). Format: in vitro ADME, beagle dogs. To be noted: d (beagle dog plasma), dialysis 4 hours at 37 °C, read-out: Unbound PPB%. The protocol:
as §1, §2, §3, §4, §5, §6, §7, §8, §9
On the technique in general: In equilibrium dialysis free small molecules cross a membrane that holds back macromolecules.

In a further data set the target is T1, hKCNQ2/3 (Homo sapiens, UniProt O43525+O43526).
T1 construct: expressed in transfected cells; host or cells: CHO
The experiment in a line: hKCNQ2/3 thallium flux assay (FLIPR). Particulars: agonistic effect, CHO cell line stably expressing hKCNQ2/3. Format: cell-based. From the text:
The present disclosure also provides the following assay methods: • Assay method 1: hKCNQ2/3 thallium flux assay • Purpose of the assay: To determine the in vitro concentration-response relationship of the compounds in a CHO cell line stably expressing hKCNQ2/3 using FLIPR thallium flux assay.
CHO cells stably transfected with hKCNQ2/3.
The cell line was passaged three times a week at a split ratio of 1:2 to 1:3. When the cells grew to a confluence degree of greater than 80% in a T-75 cell flask, they were digested with 0.25% trypsin-EDTA solution for about 1 minute, and then the cells were transferred from the cell flask for passage. According to the split ratio, the cells were transferred to another T-75 cell flask containing complete cell growth culture medium. Note: In order to maintain the logarithmic growth of cells, the cell growth should be maintained in a subconfluent monolayer state. The cells were passaged every 2 to 3 days according to the cell doubling time.
• (1) Day 1, cell preparation: The cells were digested according to the above method, and the cell density and viability were determined using Cell Countess. The volume of the single-cell suspension was adjusted with complete cell growth culture medium. Then, the hKCNQ2/3_CHO cells were seeded at a density of approximately 20,000 cells/well (30 µL/well) into a PDL-precoated 384-well plate. Then, the plate was incubated at 37 °C with 5% CO2 humidified air in an incubator overnight. • (2) Day 2, compound preparation: A test compound was diluted to a storage concentration with dimethyl sulfoxide (DMSO), and stored in a freezer at -20 °C. A compound addition program was set up on the ECHO liquid workstation, and the compound was added to the plate using the ECHO liquid workstation. A positive control was prepared using Retigabine (RTG) with a maximum concentration of 100 µM, which was subjected to a 3-fold dilution, resulting in a total of 9 doses constituting the plate map required for plating. Prepare the plate using a stimulation buffer containing 5 mM K^+ and 1 mM Tl^+. Note: 1) K2SO4 and Tl2SO4 were prepared in a 1× chloride-free buffer. When different voltage-gated potassium channels were involved, the concentrations of Tl^+ and K^+ were needed to be adjusted. The concentration of Tl^+ was approximately 0.5 mM to 5 mM, and the concentration of K^+ was approximately 5 mM to 30 mM. 2) Each 1 mM solution of K2SO4 and Tl2SO4 contained 2 mM K^+ and Tl^+. The final concentration should be calculated based on the ion concentrations. 3) TlCl was easily precipitated and a chloride-free buffer was required. • (3) Day 2, assay testing: When the cells reached the confluence degree, the cell analysis plate was taken out from the incubator. The assay buffer was prepared and the Tl^+ dye (Molecular Devices # R8222) was diluted. The culture medium was discarded using the liquid workstation Bravo and 25 µL of Tl^+ dye was added to each well. The plate was incubated for 1 hour, and then the cell analysis plate, composite plate, and FLIPR tip were placed in FLIPR^TETRA (Molecular Devices, USA) for FLIPR assay. The tip was set up, and then the baseline was read for 60 seconds. Then, 12.5 µL from the composite plate (3×) was added to the cell analysis plate, and the data were recorded for at least 5 minutes at the same time. • (4) Data processing: The maximum signal was generated with FLIPR software. Excel (2013) and Prism 6.01 were used for data analysis. The data quality control was performed with S/B > 2.00 and Z-factor > 0.50. IC50 or EC50 was defined as the midline between the lowest and the highest plateaus, and it was calculated using a four-parameter logistic model with Prism 6.01.
Purpose of the assay: To determine the in vitro concentration-response relationship of the compounds in a CHO cell line stably expressing hKCNQ2/3 using FLIPR thallium flux assay. […]

In general, pEC50 refers to the negative decadic logarithm of the EC50, by convention in mol/L. Low values mean a high EC50, high ones a low EC50.

pEC50: −log10 of the molar value.

T1 sequence (O43525 whole entry): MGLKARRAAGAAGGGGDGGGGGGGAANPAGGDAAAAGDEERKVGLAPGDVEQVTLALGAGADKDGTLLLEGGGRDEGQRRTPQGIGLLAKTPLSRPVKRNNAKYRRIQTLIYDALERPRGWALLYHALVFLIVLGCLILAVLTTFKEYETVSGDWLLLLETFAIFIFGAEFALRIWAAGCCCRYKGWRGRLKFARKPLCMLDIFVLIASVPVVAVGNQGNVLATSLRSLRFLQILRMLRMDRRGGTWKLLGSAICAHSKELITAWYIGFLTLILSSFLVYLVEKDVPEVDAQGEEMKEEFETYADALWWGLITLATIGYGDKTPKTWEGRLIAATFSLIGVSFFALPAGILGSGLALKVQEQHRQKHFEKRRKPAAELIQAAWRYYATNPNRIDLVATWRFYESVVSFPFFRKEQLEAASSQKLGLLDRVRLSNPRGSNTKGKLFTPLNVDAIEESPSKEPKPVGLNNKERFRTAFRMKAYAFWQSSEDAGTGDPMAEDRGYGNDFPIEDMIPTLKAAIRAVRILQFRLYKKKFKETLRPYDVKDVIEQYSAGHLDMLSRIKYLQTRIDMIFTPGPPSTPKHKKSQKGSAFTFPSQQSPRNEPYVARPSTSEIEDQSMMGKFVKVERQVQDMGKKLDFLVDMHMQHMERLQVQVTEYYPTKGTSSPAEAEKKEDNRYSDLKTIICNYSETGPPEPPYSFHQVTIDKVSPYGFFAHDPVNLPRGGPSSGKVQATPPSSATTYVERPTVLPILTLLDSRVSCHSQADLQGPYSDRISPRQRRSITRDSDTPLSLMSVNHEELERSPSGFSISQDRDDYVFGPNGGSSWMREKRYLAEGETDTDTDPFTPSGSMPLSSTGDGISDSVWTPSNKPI
T1 sequence (O43526 whole entry): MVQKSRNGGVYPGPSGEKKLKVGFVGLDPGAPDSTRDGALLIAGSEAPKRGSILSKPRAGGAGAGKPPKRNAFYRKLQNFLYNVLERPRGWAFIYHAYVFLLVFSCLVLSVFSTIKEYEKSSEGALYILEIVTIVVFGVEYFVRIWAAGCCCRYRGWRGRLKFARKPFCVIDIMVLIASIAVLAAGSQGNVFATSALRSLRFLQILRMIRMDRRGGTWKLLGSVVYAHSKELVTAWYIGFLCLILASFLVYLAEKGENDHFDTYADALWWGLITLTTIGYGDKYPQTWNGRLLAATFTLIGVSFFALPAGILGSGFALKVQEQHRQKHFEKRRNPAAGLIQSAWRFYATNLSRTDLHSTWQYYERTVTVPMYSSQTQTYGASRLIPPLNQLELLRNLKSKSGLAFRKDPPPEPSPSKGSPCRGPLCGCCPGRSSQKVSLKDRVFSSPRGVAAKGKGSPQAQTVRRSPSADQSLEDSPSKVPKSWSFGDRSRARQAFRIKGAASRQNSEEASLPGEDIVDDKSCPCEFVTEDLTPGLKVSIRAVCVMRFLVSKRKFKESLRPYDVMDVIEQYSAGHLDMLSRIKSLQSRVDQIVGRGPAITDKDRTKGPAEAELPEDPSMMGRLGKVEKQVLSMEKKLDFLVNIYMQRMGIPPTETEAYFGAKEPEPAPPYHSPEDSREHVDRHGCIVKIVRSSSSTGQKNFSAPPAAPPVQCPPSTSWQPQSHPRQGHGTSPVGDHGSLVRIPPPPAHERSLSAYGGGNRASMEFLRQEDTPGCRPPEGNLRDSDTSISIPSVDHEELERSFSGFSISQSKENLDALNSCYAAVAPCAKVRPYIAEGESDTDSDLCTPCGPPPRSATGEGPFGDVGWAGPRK

As to `CC(C)(C)CC(=O)Nc1nc2c(F)cc(C#N)cn2c1-c1ccc(OC(F)(F)F)cc1` [Compound 1], the fraction unbound at 4 h, 2 µM turned out to be 0.071 in data set [1] and 0.046 in data set [2].

As for `CC(C)(C)CC(=O)Nc1nc2c(F)cc(C#N)cn2c1C1=CCCC1` [Compound 3], the negative-log EC50 (pEC50) on hKCNQ2/3 was 6.32. For the same compound, the fraction unbound at 4 h, 2 µM amounted to 0.097 in data set [1] and 0.203 in data set [2].

On hKCNQ2/3, `CC(C)(C)CC(=O)Nc1nc2c(F)cc(C#N)cn2c1C12CC(C1)C2` [Compound 5] had a pEC50 of 6.70. For the same compound, the fraction unbound at 4 h, 2 µM in data set [1] came to 0.166; in data set [2], 0.278.

`CC(C)(C)CC(=O)Nc1nc2c(C(F)(F)F)cc(C#N)cn2c1C12CC(C1)C2` [Compound 6]: the pEC50 on hKCNQ2/3 was 6.15.
